Source: patent US20250009763A1, “METHODS FOR EXTENDING LIFESPAN AND/OR DELAYING AGING” (priority 2023, published 2025)

Legend:
yeast MEP strain ZHY2 = test: Mother enrichment program (MEP) assay; type: cell-based, Saccharomyces cerevisiae; conditions: 0-100 μM PN6, particularly above 10 μM; FIGS. 1A-1D
Description: The MEP strain ZHY2 cells were cultured at 30° C. overnight in liquid yeast 5 extract peptone dextrose (YEPD) medium containing 0, 0.1, 0.5, 2, 10, 25, 50, or 100 μM PN6, and the cultures were diluted to A600=0.25 and recovered to the log phase. Cultures were counted and inoculated in culture tubes at a cell density of 2×10^3 cells/ml. Estradiol was added to the mixtures to achieve a final concentration of 1 μM, and the mixtures were incubated in a roller drum at 50 rpm and 30° C. for 60 hours. Each group was monitored by harvesting samples at the indicated time points. The collected samples were washed and plated in solid YEPD media without estradiol, and the viability is reported as CFUs per 500 μl. The software OpenCFU 3.8 was used to calculate colonies.

[1] = test system: sir2Δfob1Δ mutant strain of yeast; test: RLS of sir2Δfob1Δ double deletion strain; type: cell-based, Saccharomyces cerevisiae; conditions: 25 μM; FIG. 2A
Description: The micromanipulation of the yeast cells was carried out as follows. Prior to analysis, yeast strains BY4741 (WT), BY4741-fob1Δ (fob1Δ), or BY4741-sir2Δfob1Δ (sir2Δfob1Δ) were plated onto fresh solid YEPD medium and grown at 30° C. for two days. Then, individual colonies were picked and grown in solid YEPD media containing: (1) dimethyl sulfoxide (DMSO), (2) 10, 25, or 50 μM PN6, or (3) 25 μM β-sitosterol at 30° C. overnight, and a small number of yeast cells were then plated onto a fresh YEPD plate for lifespan analysis. After overnight growth on the lifespan plates, the cells were arrayed on the plate using a micromanipulator and allowed to grow for approximately 3 hours. Virgin daughter cells were selected and subjected to lifespan analysis. In the lifespan experiments, the plates were incubated at 30° C. during the day and stored at 4° C. overnight. Each experiment consisted of more than 50 mother cells and was independently repeated three times.

p21 = p21 expression in HUVECs, western blot; type: cell-based, human; conditions: HUVECs at PDL11, 1 or 2 μM; FIG. 3B
Description: For the population doubling (PD) assay, HUVECs (1×10^5 cells/3.5 cm dish) were propagated in the presence of DMSO (i.e., control) or PN6 (1 or 2 μM) until senescence (Day 41), and the cell numbers in each passage were recorded to generate a growth curve that represented the cumulative population doubling. The population doubling levels (PDLs) of HUVECs were calculated in every culture to indicate the proliferation capacity of HUVECs under the respective conditions. The population doublings (PDs) were estimated using the equation: PDL=3.32 (log (total viable cells at harvest/total viable cells at seeding). Also, HUVECs at passages PDL4 and PDL11 cultured in 0 μM (i.e., DMSO alone), 1 μM, or 2 μM PN6 were harvested for further analyses (e.g., western blot and SA-β-gal staining).
Cells were harvested with a 1.25× Laemmli buffer and lysed in RIPA lysis buffer containing 1% of Triton X-100 and a protease inhibitor cocktail, and total protein concentrations were measured with a protein assay kit. Proteins in the samples of the lysates with the same amounts of total protein were separated by sodium dodecyl sulfate polyacrylamide gel electrophoresis (SDS-PAGE) (10% polyacrylamide gels) and analyzed by immunoblotting. […] Protein quantification was performed by software.

aged C57BL/6J mice [2] = test: Rearing behavior; type: in vivo, mouse; conditions: long-term (111 weeks of age), old-aged mice; FIG. 4D
Description: The rearing behavior of the male C57BL/6J mice fed a standard rodent chow with or without 50 mg/kg PN6 for 22 weeks (at 72 weeks of age; mid-term) or for 61 weeks (at 111 weeks of age; long-term) was analyzed using the OxyletPro System, in which the mice were housed individually in metabolic cages that were equipped with infrared light beam frames surrounding them. Mid-term: SD, n=16; PN6, n=8; long-term: SD, n=12; PN6, n=8.

aged C57BL/6J mice [3] = test: Intraperitoneal insulin tolerance test (IpITT); type: in vivo, mouse; conditions: 107 weeks of age, versus SD; FIGS. 4J-4K
Description: The male C57BL/6J mice, aged 107 weeks, were fasted for […] while having free access to water, and their body weights were measured before the test started. The test was conducted by fasting the mice for 5 hours, and then injecting them with 1.25 U/kg of human recombinant insulin. Blood droplets were collected from the tail vein just prior to the insulin injection (time 0; baseline), and at 15, 30, 60, and 90 minutes following the injection. Blood glucose levels were measured using a blood glucose meter (Accu-Chek Guide; Roche, DE).

aged C57BL/6J mice [4] = test: Glucose tolerance; type: in vivo, mouse; conditions: between the two treatment groups; data not shown
aged C57BL/6J mice [5] = test: Survival, body weight and food intake of aged mice

Question: Which results are given for CCC(CC[C@@H](C)C1CCC2C3CC(=O)[C@H]4C[C@@H](O)CC[C@]4(C)C3CC[C@@]21C)C(C)C (stereo in doubt) [PN6, (24S)-3β-hydroxy-5α-stigmastan-6-one]?
Answer: viability of yeast ZHY2 (yeast MEP strain ZHY2): increased proportionally with the concentration of PN6; extension of lifespan of sir2Δfob1Δ mutant strain [1]: unable to extend the lifespan; p21 expression level (p21): decreased dose-dependently; rearing behavior (exploratory activity) (aged C57BL/6J mice [2]): increase the exploratory activity; insulin sensitivity (aged C57BL/6J mice [3]): significantly higher; glucose tolerance (aged C57BL/6J mice [4]): no significant differences; trajectories of body weight (aged C57BL/6J mice [5]; chow containing 50 mg/kg PN6, FIG. 4B): remained in a steady state; lifespan of the aged mice (aged C57BL/6J mice [5]; chow containing 50 mg/kg PN6, versus SD group, FIG. 4A): significantly increased the lifespan; food intake (aged C57BL/6J mice [5]; versus SD group, entire course of the experiment, FIG. 4C): did not diverge
